# Patent US12054470B2, “Photoswitchable dibenzothienylmethyl triphenylphosphonium derivatives and methods of treating cancer therewith” (Saint Louis University, priority 2018, dated 2024)
# What was measured:
# Water solubility = type: physicochemical
# cell cycle progression = test: Cell cycle progression with, without or before UV-A irradiation; type: cell-based
# [1] = system: MDA-MB-231 breast cancer cells; test: MTS cell viability assay with and without UV-A exposure; type: cell-based; conditions: compound added pre-UV exposure (UV-A 30 min), 100 μM and 10 μM, MTS after 24 h, vs. VC, n=4
# Method: After 24 hours incubation at 37° C., varying concentrations of 2-TPPMDBTO were added and incubated for 1 hour at 37° C. One plate with cells were then left at room temperature covered for 15 minutes (cells without UV). The second plate was exposed to UV-A in a Luzchem photoreactor with 8 LZC-UVA lamps for 15 minutes (Cells with UV). Plates were then incubated for 24 hours at 37° C. and then a MTS cell viability assay (Promega) was performed. Cell viability assay was run on a Flexstation3 mulitmode plate reader and percent viability was calculated. Statistical analyses were performed using GraphPad Prism program.
# FIGS. 6A-C show cell studies wherein MDA-MB-231 breast cancer cells were plated at 10,000 cells/well on three 96 well plates. After 24 hours incubation at 37° C., varying concentrations of MA-1 and MA-2 were added and incubated for 1 hour at 37° C. on only two plates (pre-UV and no UV exposure). One plate with cells were then left at room temperature covered for 30 min (no UV). The second plate (pre-UV) and the third plate (post-UV) were exposed to UV-A in a Luzchem photoreactor with 8 LZC-UVA lamps for 30 min. Varying concentrations of MA-1, MA-2, MA-3 and MA-4 were added to post UV plate after irradiation. […] Cell viability assay was run on a Flexstation3 mulitmode plate reader and percent viability was calculated. […]
Molecule,water solubility (Water solubility),cell cycle progression / cell cycle arrest (cell cycle progression; compound administered in the absence of UV or after irradiation),"cell cycle progression / cell cycle arrest (cell cycle progression; compound administered in the absence of UV or after irradiation, listed as 1a)",cell cycle progression / cell cycle arrest (cell cycle progression; in the presence of UV-A irradiation),"cell cycle progression / cell cycle arrest (cell cycle progression; in the presence of UV-A irradiation, listed as 1a)",% cell viability [1]
"[O-][s+]1c2ccccc2c2cc(C[P+](c3ccccc3)(c3ccccc3)c3ccccc3)ccc21 (stereo not drawn) [MA-1, (5-oxo-2-dibenzothienylmethyl)triphenylphosphonium]",water soluble,–,–,–,–,–
(5-oxo-2-dibenzothienylmethyl)triphenylphosphonium [MA-1],–,the progression of the cell cycle is not arrested,no significant change in the progress was seen,cell cycle progression is arrested,presence of UV-A irradiation is necessary to lead to cell cycle arrest,decrease in % cell viability is observed
